Test results published in the supplement of paper PMC10307832.

Legend:
Test in all cases: relative viability (nuclei count vs DMSO), 5 days (fraction); higher = more cells survive
Afatinib + Olaparib = compound: CN(C)C/C=C/C(=O)Nc1cc2c(Nc3ccc(F)c(Cl)c3)ncnc2cc1O[C@H]1CCOC1 [Afatinib] + O=C(c1cc(Cc2n[nH]c(=O)c3ccccc23)ccc1F)N1CCN(C(=O)C2CC2)CC1 [Olaparib] (partner 8 µM)
Summary of the method: (§1)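 For relative viability, nuclei counts in treated wells were divided by those in vehicle wells. Lung cancer cell lines had been pin-tool dosed in 1536-well plates the day after seeding and cultured for 5 days, then fixed and stained in one step (final 0.05% Triton X-100, 1% formaldehyde, 1 ug/ml Hoechst) and imaged at 4×. Doses were one drug alone or a fixed anchor-drug dose plus five library-drug doses (not always all listed) in √10 steps, and values are duplicate-plate medians.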

Afatinib + Foretinib = compound: CN(C)C/C=C/C(=O)Nc1cc2c(Nc3ccc(F)c(Cl)c3)ncnc2cc1O[C@H]1CCOC1 [Afatinib] + COc1cc2c(Oc3ccc(NC(=O)C4(C(=O)Nc5ccc(F)cc5)CC4)cc3F)ccnc2cc1OCCCN1CCOCC1 [Foretinib] (partner 0.25 µM)
Summary of the method: as §1

Afatinib + Pemetrexed = compound: CN(C)C/C=C/C(=O)Nc1cc2c(Nc3ccc(F)c(Cl)c3)ncnc2cc1O[C@H]1CCOC1 [Afatinib] + Nc1nc2[nH]cc(CCc3ccc(C(=O)N[C@@H](CCC(=O)O)C(=O)O)cc3)c2c(=O)[nH]1 [Pemetrexed] (partner 0.2 µM)
Summary of the method: as §1

Afatinib + Alpelisib = compound: CN(C)C/C=C/C(=O)Nc1cc2c(Nc3ccc(F)c(Cl)c3)ncnc2cc1O[C@H]1CCOC1 [Afatinib] + Cc1nc(NC(=O)N2CCC[C@H]2C(N)=O)sc1-c1ccnc(C(C)(C)C(F)(F)F)c1 [Alpelisib] (partner 2 µM)
Summary of the method: as §1

Cell Line | relative viability (Afatinib + Olaparib; first compound 0.005 µM) | relative viability (Afatinib + Olaparib; first compound 0.01581 µM) | relative viability (Afatinib + Olaparib; first compound 0.05 µM) | relative viability (Afatinib + Olaparib; first compound 0.1581 µM) | relative viability (Afatinib + Olaparib; first compound 0.5 µM) | relative viability (Afatinib + Foretinib; first compound 0.005 µM) | relative viability (Afatinib + Foretinib; first compound 0.01581 µM) | relative viability (Afatinib + Foretinib; first compound 0.05 µM) | relative viability (Afatinib + Foretinib; first compound 0.1581 µM) | relative viability (Afatinib + Foretinib; first compound 0.5 µM) | relative viability (Afatinib + Pemetrexed; first compound 0.005 µM) | relative viability (Afatinib + Pemetrexed; first compound 0.01581 µM) | relative viability (Afatinib + Pemetrexed; first compound 0.05 µM) | relative viability (Afatinib + Pemetrexed; first compound 0.1581 µM) | relative viability (Afatinib + Pemetrexed; first compound 0.5 µM) | relative viability (Afatinib + Alpelisib; first compound 0.005 µM) | relative viability (Afatinib + Alpelisib; first compound 0.01581 µM) | relative viability (Afatinib + Alpelisib; first compound 0.05 µM) | relative viability (Afatinib + Alpelisib; first compound 0.1581 µM) | relative viability (Afatinib + Alpelisib; first compound 0.5 µM)
NCI-H322M | 0.743 | 0.573 | 0.559 | 0.559 | 0.531 | 0.765 | 0.566 | 0.493 | 0.535 | 0.449 | 0.563 | 0.534 | 0.523 | 0.531 | 0.509 | 0.666 | 0.519 | 0.495 | 0.384 | 0.335
NCI-H2347 | 0.571 | 0.699 | 0.595 | 0.566 | 0.578 | 1.08 | 0.842 | 1.03 | 0.899 | 0.518 | 0.401 | 0.414 | 0.426 | 0.45 | 0.392 | 1.11 | 0.979 | 1.1 | 1.1 | 0.889
NCI-H1975 | 0.917 | 0.771 | 0.778 | 0.59 | 0.321 | 0.952 | 0.907 | 0.872 | 0.353 | 0.303 | 0.287 | 0.28 | 0.295 | 0.276 | 0.209 | 0.628 | 0.511 | 0.43 | 0.197 | 0.206
UMC-11 | 0.386 | 0.402 | 0.405 | 0.368 | 0.394 | 0.992 | 1.03 | 1.08 | 1.02 | 0.996 | 0.892 | 0.814 | 0.846 | 0.738 | 0.722 | 1 | 1.03 | 0.953 | 0.963 | 1.13
A-427 | 0.79 | 0.759 | 0.779 | 0.776 | 0.789 | 0.85 | 1.05 | 1.11 | 0.947 | 1.02 | 1.05 | 1.03 | 1.05 | 0.969 | 0.983 | 1.04 | 1.11 | 1.18 | 0.973 | 1.09
LCLC-97TM1 | 0.424 | 0.351 | 0.348 | 0.273 | 0.397 | 1 | 0.906 | 0.894 | 0.808 | 0.907 | 0.17 | 0.187 | 0.191 | 0.21 | 0.152 | 0.175 | 0.286 | 0.313 | 0.184 | 0.211
HCC-15 | 0.662 | 0.765 | 0.744 | 0.668 | 0.722 | 1.04 | 1.15 | 1.08 | 1.07 | 0.988 | 0.226 | 0.222 | – | 0.207 | 0.234 | 0.855 | 0.816 | 0.902 | 0.855 | 0.889
NCI-H647 | 0.559 | 0.563 | 0.526 | 0.414 | 0.552 | 1.21 | 1.1 | 1.21 | 1.11 | 1.14 | 0.174 | 0.169 | 0.179 | 0.188 | 0.107 | 1.22 | 1.13 | 1.17 | 1.03 | 1.05
